From patent publication US11149054B2, “Oxysterols and methods of use thereof” (Sage Therapeutics, Inc., priority 2016, dated 2021)
Where two headings read alike, the source gives them in different places.

How the values were obtained:
[1] = molecular target: GlunN1/GluN2A glutamate receptors (Homo sapiens (Human), UniProt Q05586+Q12879); assay: Whole-cell patch clamp of mammalian cells (Ionworks Barracuda), positive allosteric modulation, GluN1/GluN2A; type: cell-based
Procedure, shortened: (§1)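 Perforated-patch whole-cell recording, holding −70 mV, −40 mV during application; Cs-based internal pH 7.2, external with 5 mM CaCl2 pH 7.4. Test article pre-applied alone 5 min, then co-applied with EC20 L-glutamate plus 30 μM glycine. EC50 from Hill fit of % activation over the EC20 current.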

[2] = molecular target: GluN2B glutamate receptors (Homo sapiens (Human), UniProt Q05586+Q13224); assay: Whole-cell patch clamp of mammalian cells (Ionworks Barracuda), positive allosteric modulation, GluN2B; type: cell-based; conditions: for Emax: read-out: Avg Emax 2B (%)
Sequence of GluN2B glutamate receptors (Q13224 27-1484, other chains not shown): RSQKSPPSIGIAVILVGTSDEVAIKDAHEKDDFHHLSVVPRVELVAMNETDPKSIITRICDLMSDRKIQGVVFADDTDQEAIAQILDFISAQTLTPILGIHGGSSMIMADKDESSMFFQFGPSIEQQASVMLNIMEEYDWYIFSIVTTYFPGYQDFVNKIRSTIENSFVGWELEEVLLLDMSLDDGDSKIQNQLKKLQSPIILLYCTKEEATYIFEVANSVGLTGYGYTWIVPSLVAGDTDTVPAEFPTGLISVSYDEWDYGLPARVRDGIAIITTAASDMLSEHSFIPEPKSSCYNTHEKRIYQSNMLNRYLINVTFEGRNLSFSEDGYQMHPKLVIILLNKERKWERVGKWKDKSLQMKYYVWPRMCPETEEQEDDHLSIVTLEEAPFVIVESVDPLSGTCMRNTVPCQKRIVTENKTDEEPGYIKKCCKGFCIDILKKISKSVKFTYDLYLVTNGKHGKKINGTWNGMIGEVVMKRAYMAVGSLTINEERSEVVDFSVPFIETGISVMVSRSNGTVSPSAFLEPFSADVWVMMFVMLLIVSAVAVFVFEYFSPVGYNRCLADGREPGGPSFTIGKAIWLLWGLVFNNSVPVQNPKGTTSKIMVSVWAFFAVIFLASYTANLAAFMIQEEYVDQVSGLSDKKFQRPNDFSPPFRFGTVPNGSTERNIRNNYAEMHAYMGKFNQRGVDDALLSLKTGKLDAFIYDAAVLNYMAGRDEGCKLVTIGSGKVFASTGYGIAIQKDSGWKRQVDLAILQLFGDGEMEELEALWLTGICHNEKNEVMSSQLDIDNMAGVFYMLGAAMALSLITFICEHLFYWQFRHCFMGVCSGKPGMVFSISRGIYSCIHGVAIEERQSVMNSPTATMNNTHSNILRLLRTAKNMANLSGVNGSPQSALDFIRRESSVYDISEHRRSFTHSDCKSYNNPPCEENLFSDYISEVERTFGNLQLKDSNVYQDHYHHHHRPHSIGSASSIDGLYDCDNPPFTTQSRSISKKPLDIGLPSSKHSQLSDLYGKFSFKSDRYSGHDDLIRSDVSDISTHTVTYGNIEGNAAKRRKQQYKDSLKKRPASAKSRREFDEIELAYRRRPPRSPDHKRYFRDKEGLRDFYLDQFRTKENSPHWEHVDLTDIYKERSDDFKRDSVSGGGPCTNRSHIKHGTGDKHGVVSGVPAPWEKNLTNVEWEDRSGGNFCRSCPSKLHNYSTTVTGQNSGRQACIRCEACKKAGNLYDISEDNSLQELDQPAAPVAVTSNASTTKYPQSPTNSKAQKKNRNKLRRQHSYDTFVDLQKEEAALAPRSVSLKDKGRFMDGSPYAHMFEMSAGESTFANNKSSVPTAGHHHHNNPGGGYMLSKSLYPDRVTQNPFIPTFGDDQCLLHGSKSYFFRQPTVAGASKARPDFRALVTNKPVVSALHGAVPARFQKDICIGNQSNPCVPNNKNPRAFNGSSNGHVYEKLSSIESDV
Procedure, shortened: as §1

[3] = HEK293 cells, % potentiation of current elicited with EC20 L-glutamate and 30 μM glycine, read-out: Avg Emax 2A (%)
[4] = % potentiation of current elicited with EC20 L-glutamate and 30 μM glycine
[5] = HEK293 cells, co-application with EC20 L-glutamate and 30 μM glycine, 8-point concentration-response, read-out: Avg EC50 2A
[6] = co-application with EC20 L-glutamate and 30 μM glycine, 8-point concentration-response, read-out: Avg EC50 2B
[7] = HEK293, read-out: Avg Emax 2A (%)

Sequence of GlunN1/GluN2A glutamate receptors (Q12879 23-1464, other chains not shown): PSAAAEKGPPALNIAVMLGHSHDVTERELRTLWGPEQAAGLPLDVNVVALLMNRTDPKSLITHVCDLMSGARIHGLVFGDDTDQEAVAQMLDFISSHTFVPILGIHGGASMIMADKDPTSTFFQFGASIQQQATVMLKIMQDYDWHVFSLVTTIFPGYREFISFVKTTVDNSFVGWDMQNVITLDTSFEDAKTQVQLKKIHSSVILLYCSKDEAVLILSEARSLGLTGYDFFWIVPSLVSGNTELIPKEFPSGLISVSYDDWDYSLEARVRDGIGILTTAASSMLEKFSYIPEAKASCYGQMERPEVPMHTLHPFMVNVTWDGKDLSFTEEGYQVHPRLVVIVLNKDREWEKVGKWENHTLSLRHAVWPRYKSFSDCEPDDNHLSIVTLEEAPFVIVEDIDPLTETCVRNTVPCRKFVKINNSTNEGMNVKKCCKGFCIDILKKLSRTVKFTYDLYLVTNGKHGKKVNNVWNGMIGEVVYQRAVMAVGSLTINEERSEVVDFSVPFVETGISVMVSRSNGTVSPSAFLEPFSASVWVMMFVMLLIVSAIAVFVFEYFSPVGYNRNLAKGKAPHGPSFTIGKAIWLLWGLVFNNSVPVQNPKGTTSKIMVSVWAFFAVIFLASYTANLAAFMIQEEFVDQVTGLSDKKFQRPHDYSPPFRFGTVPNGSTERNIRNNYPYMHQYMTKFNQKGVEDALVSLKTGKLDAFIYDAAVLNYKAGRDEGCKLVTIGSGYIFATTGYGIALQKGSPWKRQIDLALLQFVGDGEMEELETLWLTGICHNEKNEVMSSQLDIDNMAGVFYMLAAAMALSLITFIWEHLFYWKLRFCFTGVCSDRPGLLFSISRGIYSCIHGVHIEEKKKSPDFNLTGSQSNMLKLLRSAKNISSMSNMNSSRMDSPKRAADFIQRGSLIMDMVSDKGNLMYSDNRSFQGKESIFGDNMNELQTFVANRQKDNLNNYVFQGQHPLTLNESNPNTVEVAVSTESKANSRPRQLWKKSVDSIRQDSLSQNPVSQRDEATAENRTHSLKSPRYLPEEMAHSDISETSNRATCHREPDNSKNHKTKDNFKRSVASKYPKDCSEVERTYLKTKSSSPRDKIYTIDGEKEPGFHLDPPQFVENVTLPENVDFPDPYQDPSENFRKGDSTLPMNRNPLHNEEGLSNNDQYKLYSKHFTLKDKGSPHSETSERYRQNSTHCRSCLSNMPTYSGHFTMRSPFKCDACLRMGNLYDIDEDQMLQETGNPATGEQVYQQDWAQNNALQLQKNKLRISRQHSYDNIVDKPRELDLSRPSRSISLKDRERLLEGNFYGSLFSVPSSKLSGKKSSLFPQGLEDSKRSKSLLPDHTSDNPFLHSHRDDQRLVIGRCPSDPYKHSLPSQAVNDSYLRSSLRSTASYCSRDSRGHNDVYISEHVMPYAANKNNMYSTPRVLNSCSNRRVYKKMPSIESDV

## CC[C@]1(O)CC[C@@]2(C)C(=CC[C@H]3[C@@H]4CC[C@H]([C@H](C)CCC(O)c5ccccc5)[C@@]4(C)CC[C@@H]32)C1 (some centres unmarked) [Compound 761]
[1]
  EC50: 476 nM
[1]; [3]
  Emax: 302%
[2]
  EC50: 249 nM
[2]; [4]
  Emax: 197%

## CC[C@]1(O)CC[C@H]2[C@@H](CC[C@@H]3[C@@H]2CC[C@]2(C)[C@@H]([C@H](C)CC[C@@H](O)C(C)C)CC[C@@H]32)C1 [Compound 4B77]
[1]; [3]
  Emax: 467%
[1]; [5]
  EC50: 467 nM
[2]; [4]
  Emax: 320%
[2]; [6]
  EC50: 298 nM

## CC[C@]1(O)CC[C@@]2(C)C(=CC[C@H]3[C@@H]4CC[C@H]([C@H](C)CC[C@H](O)Cc5ccccc5)[C@@]4(C)CC[C@@H]32)C1 [Compound 6051]
[1]
  EC50: 500 nM
[1]; [3]
  Emax: 293%
[2]
  EC50: 1260 nM
[2]; [4]
  Emax: 292%

## CC[C@]1(O)CC[C@H]2C(=CC[C@@H]3[C@@H]2CC[C@]2(C)[C@@H]([C@H](C)CCC[C@@H](O)C(C)(C)C)CC[C@@H]32)C1 [Compound 10042]
[1]
  EC50: > 10000 nM
[1]; [3]
  Emax: 65.9%
[2]
  EC50: 1880 nM
[2]; [4]
  Emax: 113%

## CC[C@]1(O)CC[C@@]2(C)[C@@H](CC[C@@H]3[C@@H]2CC[C@]2(C)[C@@H]([C@H](C)CC[C@@H](O)c4cccnc4)CC[C@@H]32)C1 [Compound 6755]
[1]
  EC50: > 10000 nM
[1]; [3]
  Emax: 22.8%
[2]
  EC50: > 10000 nM
[2]; [4]
  Emax: 44.2%

## CC[C@]1(O)CC[C@@]2(C)C(=CC[C@H]3[C@@H]4CC[C@H]([C@H](C)CC[C@@H](O)c5cccnc5)[C@@]4(C)CC[C@@H]32)C1 [Compound 6459]
[1]
  EC50: 1330 nM
[1]; [3]
  Emax: 156%
[2]
  EC50: 909 nM
[2]; [4]
  Emax: 184%

## C[C@H](CCC[C@@H](O)C(F)(F)F)[C@H]1CC[C@H]2[C@@H]3CC[C@H]4C[C@](O)(C(F)(F)F)CC[C@]4(C)[C@H]3CC[C@]12C [Compound 3114]
[1]; [3]
  Emax: 318%
[1]; [5]
  EC50: 382 nM
[2]; [4]
  Emax: 294%
[2]; [6]
  EC50: 244 nM

## CC[C@]1(O)CC[C@H]2C(=CC[C@@H]3[C@@H]2CC[C@]2(C)[C@@H]([C@H](C)CC[C@]4(O)CCOC4)CC[C@@H]32)C1 [Compound 8603]
[1]
  EC50: 135 nM
[2]
  EC50: 75.1 nM

## C[C@H](CCC[C@H](O)C(F)(F)F)[C@H]1CC[C@H]2[C@@H]3CC[C@H]4C[C@](O)(C(F)(F)F)CC[C@]4(C)[C@H]3CC[C@]12C [Compound 11934]
[1]; [3]
  Emax: 113%
[2]; [4]
  Emax: 70%

## CC[C@]1(O)CC[C@H]2[C@@H](CC[C@@H]3[C@@H]2CC[C@]2(C)[C@@H]([C@H](C)CCC(O)C(C)C)CC[C@@H]32)C1 (some centres unmarked) [Compound 476]
[1]
  EC50: 406 nM
[1]; [3]
  Emax: 811%
[2]
  EC50: 189 nM
[2]; [4]
  Emax: 399%

## CC(C)[C@@H](O)CC[C@@H](C)[C@H]1CC[C@H]2[C@@H]3CC[C@H]4C[C@@](C)(O)CC[C@@H]4[C@H]3CC[C@]12C [Compound 1A75]
[1]; [3]
  Emax: 457%
[2]; [4]
  Emax: 308%

## C[C@H](CC[C@@H](O)C1CCC1)[C@H]1CC[C@H]2[C@@H]3CC[C@H]4C[C@](O)(C(F)(F)F)CC[C@]4(C)[C@H]3CC[C@]12C [7−B]
[1]
  EC50: 347 nM
[1]; [3]
  Emax: 356%
[2]
  EC50: 306 nM
[2]; [4]
  Emax: 352%

## CC[C@]1(O)CC[C@H]2[C@@H](CC[C@@H]3[C@@H]2CC[C@]2(C)[C@@H]([C@H](C)CCC4(O)CCC(C)(C)CC4)CC[C@@H]32)C1 [Compound 8963]
[1]; [3]
  Emax: 8.4%
[1]; [5]
  EC50: > 10000 nM
[2]; [4]
  Emax: 55.9%
[2]; [6]
  EC50: > 10000 nM

## CC[C@]1(O)CC[C@H]2C(=CC[C@@H]3[C@@H]2CC[C@]2(C)[C@@H]([C@H](C)CCCC4(O)CCOCC4)CC[C@@H]32)C1 [Compound 10216]
[1]; [3]
  Emax: 79.3%
[1]; [5]
  EC50: 1200 nM
[2]; [4]
  Emax: 121%
[2]; [6]
  EC50: 446 nM

## C[C@H](CC[C@@H](O)C1CCOCC1)[C@H]1CC[C@H]2[C@@H]3CC[C@H]4C[C@](O)(C(F)(F)F)CC[C@]4(C)[C@H]3CC[C@]12C [Compound 2081]
[1]
  EC50: 129 nM
[1]; [3]
  Emax: 126%
[2]
  EC50: 175 nM
[2]; [4]
  Emax: 215%

## C[C@H](CCC1(O)CCC(OC(F)F)CC1)[C@H]1CC[C@H]2[C@@H]3CC[C@H]4C[C@](O)(C(F)(F)F)CC[C@]4(C)[C@H]3CC[C@]12C (some centres unmarked) [Compound 5131]
[1]; [7]
  Emax: 52.9%
[2]
  Emax: 39%

## CCC(O)CC[C@@H](C)[C@H]1CC[C@H]2[C@@H]3CC=C4C[C@](O)(CC)CC[C@@H]4[C@H]3CC[C@]12C (some centres unmarked) [Compound 8564]
[1]
  EC50: 469 nM
[1]; [3]
  Emax: 252%
[2]
  EC50: 489 nM
[2]; [4]
  Emax: 310%

## CC[C@]1(O)CC[C@H]2C(=CC[C@@H]3[C@@H]2CC[C@]2(C)[C@@H]([C@H](C)CCC(C)(C)O)CC[C@@H]32)C1 [Compound 780]
[1]; [3]
  Emax: 132%
[1]; [5]
  EC50: 341 nM
[2]; [4]
  Emax: 170%
[2]; [6]
  EC50: 263 nM

## CC[C@]1(O)CC[C@@]2(C)C(=CC[C@H]3[C@@H]4CC[C@H]([C@H](C)CC[C@@H](O)c5ccccn5)[C@@]4(C)CC[C@@H]32)C1 [Compound 6348]
[1]
  EC50: 260 nM
[1]; [3]
  Emax: 79.7%
[2]
  EC50: 663 nM
[2]; [4]
  Emax: 133%

## CC[C@@H](O)CC[C@@H](C)[C@H]1CC[C@H]2[C@@H]3CC[C@H]4C[C@](O)(CC)CC[C@@H]4[C@H]3CC[C@]12C [Compound 9142]
[1]
  EC50: > 10000 nM
[1]; [7]
  Emax: 41.6%
[2]
  EC50: 70.4 nM
  Emax: 44.8%

## CC[C@]1(O)CC[C@@]2(C)C(=CC[C@H]3[C@@H]4CC[C@H]([C@H](C)CCC(O)c5ccccn5)[C@@]4(C)CC[C@@H]32)C1 (some centres unmarked) [Compound 6457]
[1]
  EC50: 732 nM
[1]; [3]
  Emax: 198%
[2]
  EC50: 524 nM
[2]; [4]
  Emax: 168%

## C[C@H](CCC1(O)CCC(C)(C)CC1)[C@H]1CC[C@H]2[C@@H]3CC=C4C[C@](O)(C(F)(F)F)CC[C@]4(C)[C@H]3CC[C@]12C [Compound 4799]
[1]
  EC50: > 10000 nM
[1]; [3]
  Emax: 36.1%
[2]
  EC50: 760 nM
[2]; [4]
  Emax: 32.8%

## C[C@H](CC[C@@]1(O)CCOC1)[C@H]1CC[C@H]2[C@@H]3CC[C@H]4C[C@](O)(C(F)(F)F)CC[C@]4(C)[C@H]3CC[C@]12C [Compound 2706]
[1]
  EC50: > 10000 nM
[1]; [3]
  Emax: 96.8%
[2]
  EC50: 124 nM
[2]; [4]
  Emax: 139%

## CC(C)[C@H]1CC[C@@](O)(CC[C@@H](C)[C@H]2CC[C@H]3[C@@H]4CC[C@H]5C[C@](O)(C(F)(F)F)CC[C@]5(C)[C@H]4CC[C@]23C)CC1 [Compound 4258]
[1]
  EC50: 1030 nM
[1]; [3]
  Emax: 184%
[2]
  EC50: 640 nM
[2]; [4]
  Emax: 242%

## C[C@H](CC[C@H](O)C(C)(C)C)[C@H]1CC[C@H]2[C@@H]3CC=C4C[C@](O)(C(F)(F)F)CC[C@]4(C)[C@H]3CC[C@]12C [Compound 3507]
[1]
  EC50: 165 nM
[2]
  EC50: 191 nM

## CC[C@]1(O)CC[C@H]2C(=CC[C@@H]3[C@@H]2CC[C@]2(C)[C@@H]([C@H](C)CC[C@@H](O)C(C)C)CC[C@@H]32)C1 [Compound 8463]
[1]
  EC50: 102 nM
[2]
  EC50: 85.1 nM
